Experimental data published in patent publication US20130053323A1, “METHODS AND USE RELATED TO HUMANIN AND HUMANIN-LIKE PEPTIDES” (priority 2009, published 2013).

Columns and labels:
NMRI nude mice = assay: Bone growth (X-ray) in tumor-xenografted NMRI nude mice; assay type: in vivo; details: HNG 1 μg/mice i.p. + bortezomib 1 mg/kg i.p. days 1, 4, 8, 11, day 13
Experimental: Male NMRI nu/nu mice (B&K Scanbur, Sweden or Taconic, Denmark) were xenografted at the age of 4 weeks (BW 18-25 g). The mice were anesthetized with 2% fluothane (Zeneca Ltd, Macclesfield, UK) supplemented with 50% N2O in oxygen. Tumor cells (NB (SH-SY5Y; 20×10^6 cells/side) or MB (D-283; 10×10^6 cells/side) in 0.1 ml medium) were implanted s.c. in the hindlegs of the animal using a 23 G needle. Tumors were measured every other day with a digital caliper, starting when they were palpable. At a tumor volume of 0.1 ml or 0.15 ml the animals were randomized into groups (1. Vehicle without tumors; 2. Vehicle with tumors; 3. HNG (S14G; 1 μg/mice); 4. CT (bortezomib; 0.8 mg/kg or 1 mg/kg); 5. HNG (S14G) 1 μg/mice+CT (bortezomib; 0.8 mg/kg or 1 mg/kg), stratified by their bodyweight and treatment started. Treatment regime was the same as in clinical settings with 2 injections/week; 2 weeks treatment (see FIG. 1, Group 1). HNG (S14G) was injected 40 min before the CT (bortezomib) injection. Tumor volume was calculated by the formula 0.44×length×width×width (Wassberg, Pahlman et al. 1997). […] The animal weight and general appearance were recorded every day throughout the experiments. […] After fixation, femur and tibia were measured with digital calipers and decalcified in 5% EDTA and then paraffin embedded. […]

[1] = tested on: neuroblastoma (SK-N-BE(2)) xenograft; assay: Tumor volume in neuroblastoma xenograft in NMRI nude mice; assay type: in vivo, human; details: bortezomib + HNG i.p., until day 13
type-X collagen = assay: Immunohistochemistry for type-X collagen in tibia growth plate; assay type: in vivo, mice
Experimental: Four weeks old mice (female, FVB) were injected with Dexa dissolved in saline (20 μg/mice) subcutaneously in the neck every day for four week. Whereas, HNG (S14G) dissolved in saline (1 μg/mice) was injected intra-peritoneally, 45 minutes prior to the Dexa injection. The vehicle group received saline only. The femur and tibia bones were dissected out and fixed in 4% formalin for 24 hrs, followed by decalcification in 10% EDTA and embedded in paraffin blocks. Five-micrometer-thick sections were prepared from these paraffin blocks. After one wash in dH2O, endogenous peroxidase activity was reduced by incubation in 3% hydrogen peroxide in methanol for 5 min at room temperature. The sections were additionally treated with 5 mg/ml hyaluronidase (Sigma-Aldrich, Inc, Steinheim, Germany) for 30 min at 37° C., then blocked in 3% horse serum and incubated overnight at +4° C. with anti-collagen type-X primary antibody (Quartett GmbH, Berlin, Germany; 1:30). Secondary anti-mouse biotinylated antibody (1:300) was purchased from DakoCytomation A/S (Glostrup, Denmark). Sections were washed in TBS, incubated with avidin-conjugated peroxidase (Vector Laboratories) for 60 min, and the resulting peroxidase activity was detected using a DAB Kit (Vector Laboratories). […] Minimum 4 measurements were taken from each sample and measured blindly. n=4-5/group, **p<0.01. […]

Substance: S14G-HN (MAPRGFSCLLLLTGEIDLPVKRRA) [HNG (S14G)]
- rescue of bortezomib-induced impairment of linear bone growth (NMRI nude mice; medulloblastoma xenograft): able to rescue and prevent the undesired side effects of CT (bortezomib) on linear bone growth
- rescue of bortezomib-induced impairment of linear bone growth (NMRI nude mice; neuroblastoma xenograft): able to rescue and prevent the undesired side effects of CT (bortezomib) on linear bone growth
- interference with anti-cancer effect of bortezomib (tumor volume) [1]: does not interfere with the anti-cancer effect
- type-X collagen expression (height) (type-X collagen; Dexa 20 μg/mice + HNG 1 μg/mice every day for four weeks, vs Dexa alone, p<0.01): significantly increased
- type-X collagen expression (height) (type-X collagen; HNG only, 1 μg/mice every day for four weeks): also increased
